# In patent US11414425B2 (priority 2018, dated 2022):
# Molecular target: α5β3γ2 GABAA receptors (Homo sapiens, UniProt P18507+P31644)
# Experiment: [3H]Ro15-1788 binding, membranes of Ltk cells stably expressing α5β3γ2 GABAA receptors
# Settings: not given
# Sequence of α5β3γ2 GABAA receptors (P31644 32-462): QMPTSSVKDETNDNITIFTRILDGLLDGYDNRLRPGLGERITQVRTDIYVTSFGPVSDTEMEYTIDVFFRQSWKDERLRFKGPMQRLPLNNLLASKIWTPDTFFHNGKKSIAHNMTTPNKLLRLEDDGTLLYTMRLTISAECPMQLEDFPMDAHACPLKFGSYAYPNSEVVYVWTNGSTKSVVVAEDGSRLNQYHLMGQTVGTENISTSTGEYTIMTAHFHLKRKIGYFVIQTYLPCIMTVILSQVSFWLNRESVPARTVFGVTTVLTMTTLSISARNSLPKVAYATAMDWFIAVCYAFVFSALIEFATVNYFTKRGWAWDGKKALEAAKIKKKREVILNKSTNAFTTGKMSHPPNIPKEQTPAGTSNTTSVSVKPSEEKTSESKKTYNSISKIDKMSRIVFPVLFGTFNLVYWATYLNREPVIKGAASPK
# Sequence of α5β3γ2 GABAA receptors (P28472 26-473 partner): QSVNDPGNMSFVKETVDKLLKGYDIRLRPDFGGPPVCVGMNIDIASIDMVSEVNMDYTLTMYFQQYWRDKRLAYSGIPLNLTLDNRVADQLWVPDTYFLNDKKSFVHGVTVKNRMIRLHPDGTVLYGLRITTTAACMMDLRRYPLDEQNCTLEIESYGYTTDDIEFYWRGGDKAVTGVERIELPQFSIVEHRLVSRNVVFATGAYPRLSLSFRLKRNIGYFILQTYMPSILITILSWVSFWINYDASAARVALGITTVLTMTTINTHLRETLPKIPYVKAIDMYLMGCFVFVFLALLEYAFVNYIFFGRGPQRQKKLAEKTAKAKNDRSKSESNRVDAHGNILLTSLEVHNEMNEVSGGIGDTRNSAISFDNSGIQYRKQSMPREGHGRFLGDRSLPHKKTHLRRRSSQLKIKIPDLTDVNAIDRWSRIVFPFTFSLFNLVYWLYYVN
# Sequence of α5β3γ2 GABAA receptors (P18507 40-475): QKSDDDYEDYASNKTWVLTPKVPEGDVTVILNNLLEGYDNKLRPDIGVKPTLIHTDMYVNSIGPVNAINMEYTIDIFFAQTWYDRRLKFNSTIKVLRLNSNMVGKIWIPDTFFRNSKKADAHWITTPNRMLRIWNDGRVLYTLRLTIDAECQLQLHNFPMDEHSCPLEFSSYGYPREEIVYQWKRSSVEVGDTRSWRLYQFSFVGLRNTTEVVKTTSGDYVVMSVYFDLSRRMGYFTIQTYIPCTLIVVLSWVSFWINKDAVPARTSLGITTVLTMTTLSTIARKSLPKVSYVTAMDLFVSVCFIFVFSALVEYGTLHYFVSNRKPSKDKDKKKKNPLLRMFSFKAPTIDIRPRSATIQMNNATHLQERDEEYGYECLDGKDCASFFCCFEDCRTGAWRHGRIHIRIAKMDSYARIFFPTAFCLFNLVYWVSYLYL
row,Structure (SMILES),Ki [nM]
1,COc1ccc2c(c1)-n1nncc1Cc1c(C3=NCC(C4CCCCC4)O3)ncn1-2 (racemic) [Compound 690],100 to 1000
2,COc1ccc2c(c1)-n1nncc1Cc1c(C3=NCC(c4cccnc4)O3)ncn1-2 (racemic) [Compound 691],< 100
3,Cc1noc(-c2ncn3c2Cc2c(Cc4ccc(F)cc4)nnn2-c2cc(Cl)ccc2-3)n1 [Compound 479],< 100
4,CCCc1noc(-c2ncn3c2Cc2c(Cc4cccc(F)c4)nnn2-c2cc(Cl)ccc2-3)n1 [Compound 480],100 to 1000
5,Cc1noc(-c2ncn3c2Cc2c(Cc4ccc(F)cc4)nnn2-c2cc(C(F)(F)F)ccc2-3)n1 [Compound 484],< 100
6,COc1ccc2c(c1)-n1nncc1Cc1c(-c3cn(-c4ccccc4)nn3)ncn1-2 [Compound 524],100 to 1000
7,COc1ccc(C#Cc2ncn3c2Cc2cnnn2-c2cc(Cl)ccc2-3)nc1 [Compound 532],< 100
8,Clc1cccc(COCc2ncn3c2Cc2cnnn2-c2cc(Cl)ccc2-3)c1 [Compound 542],100 to 1000
9,Fc1cccc(COCc2ncn3c2Cc2cnnn2-c2cc(Cl)ccc2-3)c1 [Compound 543],100 to 1000
10,Clc1ccc2c(c1)-n1nncc1Cc1c(COc3ccccc3)ncn1-2 [Compound 548],< 100
11,Fc1cccc(Cc2nnn3c2Cc2c(-c4nc(-c5ccccc5)no4)ncn2-c2ccc(C(F)(F)F)cc2-3)c1 [Compound 551],100 to 1000

# Same assay, conditions: ranges; inhibition of [3H]Ro15-1788 binding
row,Structure (SMILES),Ki [nM]
1,CCOC(=O)c1ncn2c1Cc1c(Cc3ccccc3Cl)nnn1-c1cc(C)ccc1-2 [Compound 54],< 100
2,CC(C)OCc1nnc2n1Cc1c(-c3nc(-c4ccccc4)co3)ncn1-c1ccc(Cl)cc1-2 [Compound 276],< 100
3,C#Cc1ccc2c(c1)-c1nnc(COC)n1Cc1c(C3=N[C@H](CC(C)C)CO3)ncn1-2 [Compound 280],< 100
4,COCc1nnc2n1Cc1c(C)ncn1-c1ccc(OC)cc1-2 [Compound 329],> 1000
5,C#Cc1ncn2c1Cn1c(COCC(F)(F)F)nnc1-c1cc(Cl)ccc1-2 [Compound 342],< 100
6,COCc1nnc2n1Cc1c(-c3nc(C)no3)ncn1-c1ccc(-c3ccncc3)cc1-2 [Compound 468],> 1000
7,COCc1nnc2n1Cc1c(-c3nc(C)no3)ncn1-c1cccc(OC)c1-2 [Compound 472],100 to 1000
8,Cc1noc(-c2ncn3c2Cc2c(Cc4cccc(F)c4)nnn2-c2cc(Cl)ccc2-3)n1 [Compound 477],< 100
9,Cc1noc(-c2ncn3c2Cc2c(Cc4ccc(F)cc4)nnn2-c2cc(OC(F)(F)F)ccc2-3)n1 [Compound 478],< 100
10,CC(C)c1noc(-c2ncn3c2Cc2c(Cc4ccc(F)cc4)nnn2-c2cc(OC(F)(F)F)ccc2-3)n1 [Compound 483],< 100
11,CCCc1noc(-c2ncn3c2Cc2c(Cc4ccc(F)cc4)nnn2-c2cc(OC(F)(F)F)ccc2-3)n1 [Compound 486],< 100
12,CC(C)c1noc(-c2ncn3c2Cc2c(Cc4cccc(F)c4)nnn2-c2cc(C(F)(F)F)ccc2-3)n1 [Compound 487],100 to 1000
13,CC(C)c1noc(-c2ncn3c2Cc2c(Cc4ccc(F)cc4)nnn2-c2cc(Cl)ccc2-3)n1 [Compound 489],< 100
14,CC(C)c1noc(-c2ncn3c2Cc2c(Cc4ccc(F)cc4)nnn2-c2cc(C(F)(F)F)ccc2-3)n1 [Compound 490],< 100
15,Fc1ccc(Cc2nnn3c2Cc2c(-c4ncco4)ncn2-c2ccc(OC(F)(F)F)cc2-3)cc1 [Compound 495],100 to 1000
16,Cc1nc(-c2ncn3c2Cc2c(Cc4ccc(F)cc4)nnn2-c2cc(Cl)ccc2-3)no1 [Compound 496],< 100
17,COc1ccc(C#Cc2ncn3c2Cc2cnnn2-c2cc(OC(F)(F)F)ccc2-3)cc1 [Compound 497],< 100
18,FC(F)(F)c1ccc2c(c1)-n1nncc1Cc1c(C#Cc3ccc(Cl)cc3)ncn1-2 [Compound 502],< 100
19,FC(F)(F)c1ccc2c(c1)-n1nncc1Cc1c(C3=N[C@H](c4ccccc4)CO3)ncn1-2 [Compound 506],< 100
20,CC1(C)OC(c2ncn3c2Cc2cnnn2-c2cc(OC(F)(F)F)ccc2-3)=N[C@@H]1c1ccccc1 [Compound 510],< 100
21,Fc1ccc(-n2cc(-c3ncn4c3Cc3cnnn3-c3cc(Cl)ccc3-4)nn2)cc1 [Compound 525],< 100
22,COc1ccc2c(c1)-n1nncc1Cc1c(C#Cc3ccc(C(F)(F)F)cn3)ncn1-2 [Compound 529],100 to 1000
23,COc1ccc(C#Cc2ncn3c2Cc2cnnn2-c2cc(Cl)ccc2-3)cn1 [Compound 533],< 100

row,Structure (SMILES),Ki [nM]
1,Clc1ccc2c(c1)-c1nnc(Oc3ccccc3)n1Cc1c(C3=N[C@H](c4ccccc4)CO3)ncn1-2 [Compound 541],< 100
2,Fc1ccc(OCc2ncn3c2Cc2cnnn2-c2cc(Cl)ccc2-3)cc1 [Compound 545],< 100
3,Fc1cccc(OCc2ncn3c2Cc2cnnn2-c2cc(Cl)ccc2-3)c1 [Compound 546],< 100
4,Fc1ccccc1OCc1ncn2c1Cc1cnnn1-c1cc(Cl)ccc1-2 [Compound 547],100 to 1000
5,Fc1cccc(Cc2nnn3c2Cc2c(-c4nc(-c5ccccc5)no4)ncn2-c2ccc(Cl)cc2-3)c1 [Compound 550],100 to 1000
6,Fc1cccc(Cc2nnn3c2Cc2c(-c4nc(-c5ccccc5)no4)ncn2-c2ccc(OC(F)F)cc2-3)c1 [Compound 552],100 to 1000
7,COc1ccc(C#Cc2ncn3c2Cc2cnnn2-c2cc(C(F)(F)F)ccc2-3)nc1 [Compound 554],< 100
8,COCc1nnc2n1Cc1c(C#Cc3ccc(C)nc3)ncn1-c1ccc(Cl)cc1-2 [Compound 556],100 to 1000
9,COCc1nnc2n1Cc1c(C#Cc3ccc(C)cn3)ncn1-c1ccc(Cl)cc1-2 [Compound 557],< 100
10,COCc1nnc2n1Cc1c(C#Cc3cc(C)ccn3)ncn1-c1ccc(Cl)cc1-2 [Compound 560],< 100
11,COCc1nnc2n1Cc1c(C#Cc3cc(C)ccn3)ncn1-c1ccc(OC)cc1-2 [Compound 564],100 to 1000
12,COCc1nnc2n1Cc1c(C#Cc3ccc(O)nc3)ncn1-c1ccc(Cl)cc1-2 [Compound 568],< 100
13,COCc1nnc2n1Cc1c(C#Cc3cncnc3)ncn1-c1ccc(Cl)cc1-2 [Compound 569],< 100
14,COCc1nnc2n1Cc1c(C#Cc3ncccn3)ncn1-c1ccc(Cl)cc1-2 [Compound 571],< 100
15,COCc1nnc2n1Cc1c(C#Cc3ccc(F)cn3)ncn1-c1ccc(Cl)cc1-2 [Compound 572],< 100
16,COCc1nnc2n1Cc1c(C#Cc3cnc(C)nc3)ncn1-c1ccc(Cl)cc1-2 [Compound 573],100 to 1000
17,COCc1nnc2n1Cc1c(C#Cc3cnc(OC)nc3)ncn1-c1ccc(Cl)cc1-2 [Compound 575],100 to 1000
18,COCc1nnc2n1Cc1c(C#Cc3ccc(C#N)cn3)ncn1-c1ccc(Cl)cc1-2 [Compound 577],100 to 1000
19,COCc1nnc2n1Cc1c(C#Cc3cnc(OC)cn3)ncn1-c1ccc(Cl)cc1-2 [Compound 578],< 100
20,COCc1nnc2n1Cc1c(C#Cc3ccc(Cl)cn3)ncn1-c1ccc(Cl)cc1-2 [Compound 579],< 100
21,COCc1nnc2n1Cc1c(C#Cc3ccc(OC(F)(F)F)cn3)ncn1-c1ccc(Cl)cc1-2 [Compound 580],< 100
22,COCc1nnc2n1Cc1c(C#Cc3ccc(OC)c(F)n3)ncn1-c1ccc(OC)cc1-2 [Compound 583],100 to 1000
23,COCc1nnc2n1Cc1c(C#Cc3cnc(OC)nc3)ncn1-c1ccc(OC)cc1-2 [Compound 584],100 to 1000

row,Structure (SMILES),Ki [nM]
1,COCc1nnc2n1Cc1c(C#Cc3ccc(F)cn3)ncn1-c1ccc(OC)cc1-2 [Compound 585],< 100
2,COCc1nnc2n1Cc1c(C#Cc3ccc(OC)c(C)n3)ncn1-c1ccc(OC)cc1-2 [Compound 586],< 100
3,COCc1nnc2n1Cc1c(C#Cc3ccc(C(F)(F)F)cn3)ncn1-c1ccc(OC)cc1-2 [Compound 587],< 100
4,COCc1nnc2n1Cc1c(C#Cc3cnc(C)cn3)ncn1-c1ccc(OC)cc1-2 [Compound 588],< 100
5,COCc1nnc2n1Cc1c(C#Cc3ccc(C#N)cn3)ncn1-c1ccc(OC)cc1-2 [Compound 590],100 to 1000
6,COCc1nnc2n1Cc1c(C#Cc3ccc(Cl)cn3)ncn1-c1ccc(OC)cc1-2 [Compound 591],< 100
7,COCc1nnc2n1Cc1c(C#Cc3cncnc3)ncn1-c1ccc(OC)cc1-2 [Compound 592],< 100
8,COCc1nnc2n1Cc1c(C#Cc3ncc(OC)cn3)ncn1-c1ccc(OC)cc1-2 [Compound 593],< 100
9,COCc1nnc2n1Cc1c(C#Cc3cnc(C)nc3)ncn1-c1ccc(OC)cc1-2 [Compound 594],100 to 1000
10,COCc1nnc2n1Cc1c(C#Cc3ncc(C)cn3)ncn1-c1ccc(OC)cc1-2 [Compound 595],100 to 1000
11,COCc1nnc2n1Cc1c(C#Cc3cccc(C)n3)ncn1-c1ccc(OC)cc1-2 [Compound 598],< 100
12,CCc1cncc(C#Cc2ncn3c2Cn2c(COC)nnc2-c2cc(OC)ccc2-3)c1 [Compound 599],< 100
13,COCc1nnc2n1Cc1c(C#Cc3ncc(C)cn3)ncn1-c1ccc(Cl)cc1-2 [Compound 600],100 to 1000
14,COCc1nnc2n1Cc1c(C#Cc3ncc(C)s3)ncn1-c1ccc(OC)cc1-2 [Compound 601],< 100
15,COCc1nnc2n1Cc1c(C#Cc3nc(C)cs3)ncn1-c1ccc(OC)cc1-2 [Compound 602],< 100
16,COCc1nnc2n1Cc1c(C#Cc3cccc(OC)n3)ncn1-c1ccc(Cl)cc1-2 [Compound 611],< 100
17,COCc1nnc2n1Cc1c(C#Cc3cccc(OC)n3)ncn1-c1ccc(OC)cc1-2 [Compound 612],< 100
18,COCc1nnc2n1Cc1c(C#Cc3ccc(OC(F)(F)F)cn3)ncn1-c1ccc(OC)cc1-2 [Compound 613],< 100
19,COCc1nnc2n1Cc1c(C#Cc3cccnc3OC)ncn1-c1ccc(Cl)cc1-2 [Compound 614],< 100
20,COc1ccc2c(c1)-c1nnc(COC(F)F)n1Cc1c(C#Cc3ccc(OC)nc3)ncn1-2 [Compound 620],< 100
21,COc1ccc2c(c1)-n1nncc1Cc1c(C#Cc3cnc(OC)s3)ncn1-2 [Compound 621],< 100
22,COc1ncc(C#Cc2ncn3c2Cc2cnnn2-c2cc(Cl)ccc2-3)s1 [Compound 622],< 100
23,FC(F)Oc1ccc2c(c1)-n1nncc1Cc1c(C3=NC[C@H](c4ccccc4)O3)ncn1-2 [Compound 625],100 to 1000
